“And” between values parts separate entries of the source, which are not always exact repeats. Equal values may be shown once. “Also recorded” adds a separate entry of the source.
Assays:
[1] = test system: aldosterone + salt treated rats; assay: Assay C: myocardial histopathology, semi-quantitative injury score 0 to 4; format: in vivo, rat; settings: for Myocardial Necrosis (0-4), Mean: group mean
Experimental: The procedure of Assay B was expanded upon in a further study. […] Myocardial tissue from animals in each treatment group was examined after 7, 14, or 30 days of treatment. […] Lesions were preceded by the expression and progressive upregulation of proinflammatory molecules. […] Prior to surgery the animals were individually weighed and placed in one of the following groups: […] Potassium chloride supplementation was added to the saline solution in order to prevent the potential hypokalemia associated with aldosterone excess. […] Louis, Mo.) was inserted subcutaneously at the nape of the neck. Aldosterone was administered at a dose of […]. […] Animals were sacrificed from each group (n=8-13) after 7, 14, or 30 days of treatment. Following exsanguination, hearts and kidneys were isolated, removed, rinsed in cold phosphate-buffered saline, and blotted dry. […] The equatorial regions of the heart were routinely processed into paraffin with an automated tissue processor (Hypercenter XP, Shandon/Lipshaw Inc., Pittsburgh, Pa.) and embedded into fresh paraffin apical side down (Shandon Embedding Center, Shandon/Lipshaw Inc.). […] Ten m sections were stained with the collagen specific stain, Picrosirius Red F3BA (Saturated Picric Acid (Sigma Chemical, St. […] Waterbury, Conn.) (6). Mounted tissues were hydrated with water. […] Slides were coverslipped with #1 cover glass using Permount Histological Mounting Media (Fisher Scientific). Two slides mounted with 5 m sections were cut for each animal. One slide was processed for H&E staining and one for Periodic Acid Schiff (PAS) staining. The H&E and PAS were used for pathological scoring of the hearts. Semi-quantification of myocardial injury was performed as described previously with minor modifications (7). Briefly, a scale from 0 to 4 was used to score the level of myocardial injury. A score of 0 represented no damage. […] Myocardial necrosis was defined as the presence of necrotic changes in cardiomyocytes such as nuclear pyknosis or karyolysis, non-contracting marginal wavy fibers and hypereosinophilia of the cytoplasm, or clear evidence of destruction of the cardiomyocyte membrane.

[2] = test system: aldosterone + salt treated rats; assay: Assay C further aldosterone infusion study: body weight, ventricle weights, tibia length (myocardial hypertrophy); format: in vivo, rat; settings: for Ventricular weights and ventricular weight to tibia length ratios (hypertrophy): 7, 14, 30 days
Excerpt: Assay C: Further in vivo Aldosterone Infusion Study The procedure of Assay B was expanded upon in a further study. […] Myocardial tissue from animals in each treatment group was examined after 7, 14, or 30 days of treatment. […] Lesions were preceded by the expression and progressive upregulation of proinflammatory molecules. […] Male Sprague-Dawley rats, weighing 230 to 250 g, (Harlan Sprague-Dawley Industries, Indianapolis, Ind.) were housed in a room 12-hours light/12-hours dark daily cycle at an ambient temperature of 22±1° C. (n=96). Animals were allowed one week to adjust after arrival and had free access to TEKLAD 22/5 rodent diet (Harlan TEKLAD, Madison, Wis.) and tap water until the initiation of the experiment. Prior to surgery the animals were individually weighed and placed in one of the following groups: […] Potassium chloride supplementation was added to the saline solution in order to prevent the potential hypokalemia associated with aldosterone excess. […] Louis, Mo.) was inserted subcutaneously at the nape of the neck. Aldosterone was administered at a dose of […]. […] Animals were sacrificed from each group (n=8-13) after 7, 14, or 30 days of treatment. Animals to be sacrificed after 7 or 14 days of treatment were uninephrectomized and implanted with an Alzet minipump. Animals treated for 30 days were uninephrectomized, fitted for Alzet minipumps, and implanted with radio telemetry units (model#TA11PA-C40, Data Sciences Inc., St. Paul, Minn.) according to the following procedure. […] The surgery site was clipped, scrubbed with nolvasan, and sprayed with betadine. A rostral-caudal incision was made through the skin from the base of the rib cage to the pubic region using a #11 scalpel blade. A second incision was made through the muscles of the abdominal wall to expose the peritoneal cavity. […] Organs were carefully displaced with tissue retractors in order to expose the abdominal aorta. A 1.5 cm segment just rostral to the bifurcation of the abdominal aorta into the iliac arteries was cleared of excessive connective tissue and 4-0 silk was used to make an anchor adjacent to the aorta. A microvascular clip was then placed at both ends of the cleaned region to stop excessive blood flow. Using a bent, 21 gauge needle, the abdominal aorta was penetrated. The cannula of the radio telemetry unit was inserted and stabilized in the aorta using the 4-0 silk anchor. Organs were repositioned and the telemetry unit was placed over the organs. Using a non-interrupted suture pattern with 4-0 silk, the abdominal wall was closed, and the skin was subsequently closed using a 4-0 silk in an interrupted suture pattern. […] Post-operative care included monitoring the animals on a heating pad during recovery from anesthesia until sternal recumbency was reestablished. At the cessation of each experimental time point, the animals were anesthetized with pentobarbital (65 mg/kg i.p., Sigma Chemical, St. Louis Mo.) and weighed with a Mettler PM6000 balance (Mettler-Toledo, Inc., Hightstown, N.J.). The abdominal cavity was opened to expose the abdominal aorta. A 16-gauge needle was inserted into the abdominal aorta and the animal was exsanguinated into a 12 cc syringe. The blood sample was transferred immediately into glass serum collection tubes (Terumo Medical Corp., Elkton, Md.) for drug level analysis. The samples were placed on wet ice until sample collection was complete and centrifuged for 15 min at 3000 rev/min at 4° C. Following exsanguination, hearts and kidneys were isolated, removed, rinsed in cold phosphate-buffered saline, and blotted dry.

[3] = group Mean row of Table 9.11, 7 days of treatment
[4] = individual rats, 7 days of treatment, eplerenone 100 mg/kg/day, listed as Aldosterone + salt
[5] = mean ± SEM after 30 days of treatment, eplerenone 100 mg/kg/day

For C[C@]12CCC(=O)C=C1CC[C@@H]1[C@@H]2[C@@H](O)C[C@]2(C=O)[C@@H](C(=O)CO)CC[C@@H]12 [aldosterone], the “Myocardial Necrosis (0-4)” value ([1]; Table 9.14, 7-day protocol, score 0-4, group Mean) was 0.0, the “Myocardial Necrosis (0-4)” value ([1]; Table 9.14, 7-day protocol, score 0-4, individual rats) was 0.0 and the “Myocardial Necrosis (0-4), Mean” value ([1]; 14 days of treatment) was 0.8. The “Myocardial Necrosis (0-4), Mean” value ([1]; 30 days of treatment) was 2.0, the “Myocardial Necrosis (0-4)” value ([1]; mean ± SEM after 7 days of treatment, eplerenone 100 mg/kg/day) was 0.0 ± 0.0 and the “Ventricular weights and ventricular weight to tibia length ratios (hypertrophy)” value ([2]; eplerenone 100 mg/kg/day) was “Significant left and right ventricular hypertrophy”. For the same molecule, the “Final Body Weight” value [2, 3] was 277 g, the “Right Ventricle Weight/Tibia Length” value [2, 3] was 48 mg/cm and the “Left Ventricle Weight” value [2, 4] was 620 mg. The “Left Ventricle Weight/Tibia Length” value [2, 4] was 200 mg/cm, the “Right Ventricle Weight/Tibia Length” value [2, 4] was 48 mg/cm and 49 mg/cm and 57 mg/cm and 47 mg/cm (2×) and 44 mg/cm and 41 mg/cm and 51 mg/cm and 55 mg/cm and the “Left Ventricle Weight” value [2, 5] was 910 ± 29 mg. For the same molecule, the “Right Ventricle Weight” value [2, 5] was 192 ± 8 mg, the Right Ventricle Weight/Tibia Length [2, 5] was 49 ± 2 mg/cm and the “Tibia Length” value [2, 5] was 3.9 ± 0.02 cm.

In the case of COC(=O)[C@@H]1CC2=CC(=O)CC[C@]2(C)[C@@]23O[C@@H]2C[C@@]2(C)[C@@H](CC[C@@]24CCC(=O)O4)[C@H]13 [eplerenone, Pregn-4-ene-7,21-dicarboxylic acid, 9,11-epoxy-17-hydroxy-3-oxo-, γ-lactone, methyl ester, (7α, 11α, 17β) -], the “Myocardial injury (vascular and myocardial damage, histopathology)” value ([1]; 7, 14, 30 days, eplerenone 100 mg/kg/day) is reported as “markedly attenuated myocardial injury at all time points; also recorded: markedly attenuated this initial vascular inflammatory response and subsequent myocardial injury”, the “Myocardial Necrosis (0-4), Mean” value ([1]; 14 days of treatment) is reported as 0.5 and the “Myocardial Necrosis (0-4), Mean” value ([1]; 30 days of treatment) is reported as 0.0. The “Myocardial Necrosis (0-4)” value ([1]; individual rats, 14 days of treatment, eplerenone 100 mg/kg/day, listed as Eplerenone + aldosterone + salt) was 0.0, the “Myocardial Necrosis (0-4)” value [1, 5] was 0.0 ± 0.0 and the “Ventricular weights and ventricular weight to tibia length ratios (hypertrophy)” value ([2]; eplerenone 100 mg/kg/day) was “did not impact absolute ventricular weights or ventricular weight to tibia length ratios”. The “Right Ventricle Weight/Tibia Length” value ([2]; Table 9.13, 30-day protocol, eplerenone 100 mg/kg/day, individual rats, listed as Eplerenone + aldosterone + salt) was 50 mg/cm, the “Decrease in body weight induced by aldosterone+salt” value ([2]; day 30, eplerenone 100 mg/kg/day) was “significantly attenuated” and the “Final Body Weight” value ([2]; individual rats, 7 days of treatment, eplerenone 100 mg/kg/day, listed as Eplerenone + aldosterone + salt) was 306 g and 295 g (2×) and 277 g and 276 g. It also gave a Left Ventricle Weight/Tibia Length [2, 5] of 240 ± 9 mg/cm and a Right Ventricle Weight/Tibia Length [2, 5] of 51 ± 2 mg/cm.
